The IC50 is the concentration that inhibits the measured activity by half.

Results on 2 compounds are retold here after PMC7364574 (ACS Omega, 2020).

Assay [1] relates to A549 cells. As to the kind of experiment: Cell cycle distribution analysis by flow cytometry. The conditions noted are these: 24 h, control 56.06%. The class given is cell-based. In general terms: A flow cytometer gives signals particle by particle.
Assay [2] has as its system A549 cells. As to the kind of experiment: Apoptosis analysis by flow cytometry. Particulars: 24 h, control 5.16%. The class given is cell-based.
Assay [3] addresses c-Met kinase (Homo sapiens, UniProt P08581). As to the kind of experiment: c-Met tyrosine kinase mobility shift assay. The format is biochemical. Particulars: IC50 (μM) c-Met.
The test system of assay [4] is A549 cells. The experiment in a line: Acridine orange. The format is cell-based. Particulars: A549, 0.50 μM, 8 h.

Sequence of c-Met kinase (P08581 25-1390): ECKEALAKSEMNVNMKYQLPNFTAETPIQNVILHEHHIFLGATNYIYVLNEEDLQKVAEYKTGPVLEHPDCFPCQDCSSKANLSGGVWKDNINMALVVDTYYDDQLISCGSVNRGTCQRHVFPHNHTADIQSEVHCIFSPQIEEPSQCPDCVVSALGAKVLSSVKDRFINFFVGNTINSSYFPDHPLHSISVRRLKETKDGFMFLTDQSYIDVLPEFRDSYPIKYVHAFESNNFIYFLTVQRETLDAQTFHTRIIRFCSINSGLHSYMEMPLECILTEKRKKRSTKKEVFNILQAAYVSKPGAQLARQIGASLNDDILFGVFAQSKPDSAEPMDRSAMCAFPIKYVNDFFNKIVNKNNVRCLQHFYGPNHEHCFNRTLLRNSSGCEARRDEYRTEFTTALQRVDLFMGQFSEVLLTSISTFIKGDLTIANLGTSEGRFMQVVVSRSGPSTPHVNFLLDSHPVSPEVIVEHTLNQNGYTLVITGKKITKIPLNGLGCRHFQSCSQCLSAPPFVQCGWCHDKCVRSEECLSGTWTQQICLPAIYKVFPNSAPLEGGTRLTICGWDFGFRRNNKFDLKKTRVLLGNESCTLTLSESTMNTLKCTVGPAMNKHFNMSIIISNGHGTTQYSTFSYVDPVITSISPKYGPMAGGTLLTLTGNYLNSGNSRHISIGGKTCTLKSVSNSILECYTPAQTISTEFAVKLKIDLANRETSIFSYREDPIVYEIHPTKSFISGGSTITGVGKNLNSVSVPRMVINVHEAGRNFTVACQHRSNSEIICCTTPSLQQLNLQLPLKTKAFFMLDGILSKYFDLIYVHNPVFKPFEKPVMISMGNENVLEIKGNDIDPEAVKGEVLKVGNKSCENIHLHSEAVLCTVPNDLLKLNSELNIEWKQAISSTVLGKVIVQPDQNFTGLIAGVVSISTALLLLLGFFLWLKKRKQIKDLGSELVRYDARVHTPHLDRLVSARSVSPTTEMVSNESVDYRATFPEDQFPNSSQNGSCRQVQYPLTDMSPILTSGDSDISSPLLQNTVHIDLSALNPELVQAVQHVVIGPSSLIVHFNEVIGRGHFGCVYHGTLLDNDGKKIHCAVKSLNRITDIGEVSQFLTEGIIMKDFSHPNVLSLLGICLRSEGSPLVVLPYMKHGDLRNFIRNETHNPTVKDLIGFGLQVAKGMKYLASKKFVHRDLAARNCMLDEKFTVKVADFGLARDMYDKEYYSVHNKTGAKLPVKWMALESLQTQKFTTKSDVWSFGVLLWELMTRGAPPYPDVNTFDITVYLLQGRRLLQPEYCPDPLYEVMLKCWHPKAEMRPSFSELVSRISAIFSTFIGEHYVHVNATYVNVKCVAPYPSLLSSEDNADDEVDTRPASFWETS

Regarding `Cc1cc(Oc2ccc(NC(=O)c3sc(-c4ccccn4)nc3C)cc2)c2nncn2n1` [12e, 4-Methyl-N-(4-((6-methyl-[1,2,4]triazolo[4,3-b]pyridazin-8-yl)oxy)phenyl)-2-(pyridin-2-yl)thiazole-5-carboxamide], the G0/G1 phase population in assay [1] (A549, 3.75 μM) worked out at 60.25%; in assay [1] (A549, 7.50 μM), 66.32%; in assay [1] (A549, 15.00 μM), 76.84%. Besides, the total apoptosis rate in assay [2] (A549, 3.75 μM) was 13.73%; in assay [2] (A549, 7.50 μM), 24.87%; in assay [2] (A549, 15.00 μM) it was 35.87%. Also, the IC50 in assay [3] lay in the range of 0.09 to 0.21 µM. Moreover, the “induction of apoptosis, AO staining” value in assay [4] is “significant effect on inducing apoptosis”.

Consider `Cc1cc(Oc2ccc(NC(=O)c3cnn(-c4ccc(Cl)cc4)c3C(F)(F)F)cc2F)c2nncn2n1` [13b, 1-(4-Chlorophenyl)-N-(3-fluoro-4-((6-methyl-[1,2,4]triazolo[4,3-b]pyridazin-8-yl)oxy)phenyl)-5-(trifluoromethyl)-1H-pyrazole-4-carboxamide], for which the IC50 in assay [3] is 0.09 to 0.21 µM.
